Assays:
Assay in all cases: CTG-3D luminescence at 96 h relative to day-0 seeding control (ratio to day 0); higher = more growth / less cytotoxicity; PDxO 3D drug screen, 96 h, CTG-3D normalised to day-0 seeding control.
MDA-MB-231 = test system: MDA-MB-231
HCI-005.E2 = test system: HCI-005.E2 (organoid from a breast cancer xenograft with a HER2-positive history)
HCI-016 = test system: HCI-016 (organoid from a triple-negative breast cancer xenograft)
HCI-008 = test system: HCI-008 (organoid from a HER2-enriched breast cancer xenograft)
HCI-017.E2 = test system: HCI-017.E2 (organoid from an ER-positive breast cancer xenograft)
HCI-025 = test system: HCI-025 (organoid from a breast cancer xenograft)
HCI-019 = test system: HCI-019 (organoid from a triple-negative breast cancer xenograft)

C[C@]12CC[C@@H]3c4ccc(O)cc4C[C@@H](CCCCCCCCC[S+]([O-])CCCC(F)(F)C(F)(F)F)[C@H]3[C@@H]1CC[C@@H]2O (stereo partly specified) [fulvestrant]
CTG-3D luminescence at 96 h
Details	12.5 pM	0.00025 µM	0.005 µM	0.1 µM	1 µM	10 µM	100 µM	625 fM
HCI-005.E2	1.53	2.5	1.79	2.34	1.61	1.5	1.34	1.72
HCI-017.E2	1.94	2.16	2.05	1.92	1.53	1.4	1.55	1.88
MDA-MB-231	4.61	4.53	4.7	4.58	4.8	4.81	5.18	4.69

CTG-3D luminescence at 96 h
Details	12.5 pM	0.00025 µM	0.005 µM	0.1 µM	1 µM	10 µM	100 µM	625 fM
HCI-008, days in culture: 228	1.6	1.76	1.34	1.68	1.62	1.36	1.29	1.89
HCI-008, days in culture: 244	1.4	1.74	1.94	2.15	1.59	1.9	1.66	2.27
HCI-016, days in culture: 153	2.93	2.2	2.24	2.05	2.08	2.62	1.86	2.61
HCI-016, days in culture: 172	2.46	1.77	1.97	1.54	1.72	1.14	1.63	1.6
HCI-016, days in culture: 190	1.79	1.54	1.85	1.28	1.3	0.96	1.07	1.14
HCI-016, days in culture: 199	1.92	2.05	1.9	1.67	2.19	1.62	1.44	2.07
HCI-017.E2, days in culture: 85	2.84	3.05	2.96	2.18	1.78	1.41	1.89	2.52
HCI-019, days in culture: 110	2.08	1.72	1.89	2.26	1.97	2.13	1.73	1.57
HCI-019, days in culture: 131	2.86	3.69	2.72	3.98	3.13	2.98	1.94	4.13
HCI-019, days in culture: 152	2.85	3	3.24	2.41	1.37	2.3	1.6	2.94
HCI-025, days in culture: 172	3.02	1.74	3.7	1.97	1.97	1.21	2.24	2.87
HCI-025, days in culture: 209	1.87	1.6	2.26	1.66	1.8	1.4	1.23	1.44
HCI-025, days in culture: 218	1.47	1.8	1.97	1.54	1.5	1.93	1.21	1.28

CCN(c1cc(C#CCN2CCOCC2)cc(C(=O)NCc2c(C)cc(C)[nH]c2=O)c1C)[C@H]1CC[C@H](N(C)CCOC)CC1
CTG-3D luminescence at 96 h
Details	12.5 pM	0.00025 µM	0.005 µM	0.1 µM	1 µM	10 µM	100 µM	625 fM
HCI-005.E2	1.1	1.52	1.38	1.82	1.14	1.22	1.29	1.34
HCI-017.E2	1.57	1.65	1.91	1.81	1.72	2.01	1.5	2.01
MDA-MB-231	4.49	4.37	4.44	4.29	4.31	4.37	4.39	4.51

CTG-3D luminescence at 96 h
Details	12.5 pM	0.00025 µM	0.005 µM	0.1 µM	1 µM	10 µM	100 µM	625 fM
HCI-008, days in culture: 228	1.54	1.571	1.283	1.61	1.59	1.63	1.43	1.77
HCI-008, days in culture: 244	1.38	2.13	1.81	2.04	1.7	2.31	2.04	2.47
HCI-016, days in culture: 153	2.92	1.14	2.22	1.64	2.25	2.06	1.5	3.1
HCI-016, days in culture: 172	2.13	2.17	1.72	1.56	2.1	1.64	1.52	1.33
HCI-016, days in culture: 190	2.02	1.67	1.75	1.5	1.73	1.62	1.56	1.36
HCI-016, days in culture: 199	1.74	2.22	2.22	1.86	2.01	1.95	2.02	2.09
HCI-017.E2, days in culture: 85	1.88	2.36	2.01	2.07	1.45	1.61	1.9	1.77
HCI-019, days in culture: 110	2.05	1.49	1.58	2.08	1.81	2.75	2.01	2.28
HCI-019, days in culture: 131	2.63	3.96	3.07	3.21	1.98	2.33	0.501	3.23
HCI-019, days in culture: 152	2.5	4.04	2.16	1.89	2.77	1.9	0.188	2.36
HCI-025, days in culture: 172	2.86	2.03	3.74	2.35	2.66	1.89	2.28	2.74
HCI-025, days in culture: 209	2.08	3.04	2.37	1.7	2.53	1.47	1.54	2.18
HCI-025, days in culture: 218	1.66	1.66	1.76	1.73	1.43	2.1	1.58	1.76
